The target of one series is T1, PDZ3 of PSD-95 (Homo sapiens, UniProt P78352).
T1 construct: PDZ3 (residues 309-401); made in house; host or cells: E. coli BL21-DE3 pLysS
Briefly: FP heterologous competition binding assay. The settings on record: FP competition; mean ± SEM; NA = no activity/affinity. The text has this:
(§1) Determined IC50 values may be converted to Ki values.^5 Suitable fluorophores include either 5-FAM or Cy5, which may be coupled to a tripeptide (KSG or CSG) linker attached to the N-terminus of the undecapeptide, to give 5-FAM-NR2B, Cy5-NR2B, 5-FAM-CRIPT and Cy5-CRIPT. The 5-FAM fluorophore may be attached to the undecapeptides by coupling with HATU. The Cy5 fluorophore may be conjugated to the undecapeptides by coupling Cy5-maleimide to the cysteine side chain of the tripeptide sequence CSG attached to the N-terminus of the peptide, as detailed in the Methodology section.
(§2) To measure the affinities between non-fluorescent peptides and PDZ domains, heterologous competition bindings assay were performed. This was done by adding increasing concentrations of peptide to a fixed concentration of Cy5-NR2B, 5-FAM-NR2B, Cy5-CRIPT or 5-FAM-CRIPT (50 nM) and PDZ (20 μM for PDZ1, 3 μM for PDZ2 and 1-2 and 5 μM for PDZ3) in the same TBS buffer and conditions as described above. FP values were then fitted to the general equation: Y=Bottom+(Top−Bottom)/[1[…](10̂^X-logIC50)], where X is the logarithmic value of peptide concentration. Hereby the IC50 value was obtained, which is used to calculate the theoretical competitive inhibition constant, Ki.^5
(§3) A convenient and reliable way to examine interactions between peptide analogues and PDZ domains is by using a fluorescence polarization (FP) assay. The three PDZ domains, PDZ1-3, of PSD-95 were expressed individually as set out above, while PDZ1-2 was also expressed as a tandem construct. […] IC50 values were then converted to Ki values.^5

In another series the target is T2, PDZ2 of PSD-95 (Homo sapiens, UniProt P78352).
T2 construct: PDZ2 (residues 155-249); made in house; host or cells: E. coli BL21-DE3 pLysS
Briefly: FP heterologous competition binding assay. Particulars: for Ki: FP competition, mean ± SEM, NA = no activity/affinity.
Description: as §1, §2, §3

Series [1] can be described thus: Human blood plasma stability assay. Type of series: in vitro ADME. As for the experimental part: In this assay, the half-life (T1/2) of a compound in blood plasma is measured in vitro, whereby its susceptibility to degradation by proteases, peptidases and general plasma contents is quantified.
Compounds of interest were dissolved in human blood plasma (270 μl; 3H Biomedical, Sweden, cat no 1300-1-P50) to a concentration of 0.25 mM (30 μL of 2.5 mM) and incubated at 37° C. Aliquots (30 μl) were removed at various time intervals (0, 5, 10, 20, 40, 80, 160, 320, 960, 1280, 2550, 4560 and 7240 min) and quenched with 60 μL trichloroacetic acid (aq., 5%). The aliquots were vortexed, and incubated for at least 15 min, at 4° C. prior to centrifugation at 18,000 g for 2 min and the supernatant was analyzed by RP-HPLC to quantify the remaining compound (absorbance at 218 nm).

The target of another series is T3, PDZ1 of PSD-95 (Homo sapiens, UniProt P78352).
T3 construct: PSD-95 PDZ1 (residues 61-151); made in house; host or cells: E. coli BL21-DE3 pLysS
Description: FP heterologous competition binding assay. The settings on record: for Ki: FP competition, mean ± SEM, NA = no activity/affinity.
Description: as §1, §2, §3

The target in another series is T4, PDZ1-2 tandem of PSD-95 (Homo sapiens, UniProt P78352).
T4 construct: PDZ1-2 (residues 61-249) tandem; made in house; host or cells: E. coli BL21-DE3 pLysS
Briefly: FP heterologous competition binding assay. The settings on record: mean ± SEM.
Description: as §1, §2, §3

Setting [2] is: human, plasma, Blood plasma half life (T1/2).

Numbered stars: 1 amine (or outer) side, 2 acyl side, 3 side chain; on linkers, the order of the positions; unused ones are H or OH. Bridge positions count the residues as written; N and C are the ends. Square brackets hold non-standard residues; d marks the D form. Ends that are not written are not given here. Peptide text beside a SMILES is read from it. I, II: the chains in the order shown. CO(CH2CH2O)13CH2CH2CO = O=C(CCOCCOCCOCCOCCOCCOCCOCCOCCOCCOCCOCCOCCOCCC(=O)[*:2])[*:1]; CO(CH2CH2O)9CH2CH2CO = O=C(CCOCCOCCOCCOCCOCCOCCOCCOCCOCCC(=O)[*:2])[*:1]; NMeE = CN[C@@H](CCC(=O)O)C(=O)O

As a reminder, the Ki is a measure of affinity in units of concentration, obtained from inhibition or displacement. On to `CC(C)[C@H](NC(=O)[C@H](C)NC(=O)[C@@H](NC(=O)[C@H](C)N)[C@@H](C)O)C(=O)O` [ATAV (68), ATAV] (H-ATAV-OH; C-terminus assumed), for which, on PDZ3 of PSD-95, the Ki was not below 400 µM.

As for `CC(C)[C@H](NC(=O)[C@H](CC(=O)O)NC(=O)[C@H](CO)NC(=O)[C@H](CCC(=O)O)NC(=O)CCOCCOCCOCCOCCOCCOCCOCCOCCOCCOCCOCCOCCOCCC(=O)N[C@@H](CCC(=O)O)C(=O)N[C@@H](CO)C(=O)N[C@@H](CC(=O)O)C(=O)N[C@H](C(=O)O)C(C)C)C(=O)O` [Compound 84] (I: ESDV-OH / II: ESDV-OH; linker I:N-II:N via CO(CH2CH2O)13CH2CH2CO; C-terminus assumed), the Ki at PDZ2 of PSD-95 stood at 22 ± 0.18 µM.

The half-life is the time in which the quantity being followed falls by half. Read a high half-life as slow decline. In the case of `CC(C)[C@H](NC(=O)[C@H](CC(=O)O)NC(=O)[C@H](CO)NC(=O)[C@@H](N)CCC(N)=O)C(=O)O` [Compound 29] (H-QSDV-OH), the half-life at […] in series [1] (setting [2]) is 0.283 to 0.917 h.

In the case of `CC(C)[C@H](NC(=O)[C@H](C)NC(=O)[C@@H](NC(=O)[C@H](CCC(=O)O)NCCCc1ccccc1)C(C)O)C(=O)O` (stereo partly shown) [Compound 60, N-Phenylpropyl-ETAV], the Ki on PDZ1 of PSD-95 turned out to be 2.1 ± 0.35 µM; at PDZ2 of PSD-95 it was 3.1 ± 0.31 µM.

As for `CC[C@H](C)[C@H](NC(=O)CCOCCOCCOCCOCCOCCOCCOCCOCCOCCC(=O)N[C@H](C(=O)N[C@@H](CCC(=O)O)C(=O)N[C@@H](CO)C(=O)N[C@@H](CC(=O)O)C(=O)N[C@H](C(=O)O)C(C)C)[C@@H](C)CC)C(=O)N[C@@H](CCC(=O)O)C(=O)N[C@@H](CO)C(=O)N[C@@H](CC(=O)O)C(=O)N[C@H](C(=O)O)C(C)C` [(IESDV)2PEG8 (76), (IESDV)2PEG8], the “degradation in human blood plasma, in words” value (“degradation” for short) in series [1] was “no significant degradation could be detected over a time period of 6 days”. Besides, the half-life at […] in series [1] (setting [2]) is more than 133 h. Moreover, the inhibition constant (Ki) was approximately 0.1 µM on PDZ1-2 tandem of PSD-95 and 2.6 ± 0.13 µM at PDZ2 of PSD-95.

In the case of `CC[C@H](C)[C@H](NC(=O)CCOCCOCCOCCOCCOCCC(=O)N[C@H](C(=O)N[C@@H](C)C(=O)N[C@H](C(=O)N(C)[C@@H](C)C(=O)N[C@H](C(=O)O)C(C)C)[C@@H](C)O)[C@@H](C)CC)C(=O)N[C@@H](C)C(=O)N[C@H](C(=O)N(C)[C@@H](C)C(=O)N[C@H](C(=O)O)C(C)C)[C@@H](C)O` [(IATAMeV)2PEG4 (90), (IATAMeV)2PEG4], the “degradation” value in series [1] is recorded as “no significant degradation could be detected over a time period of 6 days”. In addition, the half-life in series [1] (setting [2]) was more than 133 h.

On to EMeTDV ([NMeE]TDV) [Compound 36], for which, in the series with PDZ1 of PSD-95, the “fold increase in affinity (more potent) compared to NR2B peptide (1), PDZ1” value is given as “ca. 3 fold”. For the same molecule, in the series with PDZ2 of PSD-95 (FP assay), the “affinity to PDZ2, in words” value is reported as “only slightly less potent”.

As to `CC(C)[C@H](NC(=O)[C@H](C)NC(=O)[C@@H](N)[C@@H](C)O)C(=O)O` [TAV (49), TAV] (H-Thr-Ala-Val-OH; N-terminus and C-terminus assumed), on PDZ1 of PSD-95, the “fold increase in Ki (loss of affinity) compared to NR2B peptide (1), PDZ1” value is “ca. 2 fold” and the Ki turned out to be 42 µM. On PDZ2 of PSD-95, the “fold increase in Ki (loss of affinity) compared to NR2B peptide (1), PDZ2” value is listed as approximately 9 fold and the Ki was found to be 37 µM.

For the molecule `CC(C)[C@H](NC(=O)[C@H](CC(=O)O)NC(=O)[C@H](CO)NC(=O)[C@H](CCC(=O)O)NC(=O)CCOCCOCCOCCOCCOCCOCCOCCOCCOCCC(=O)N[C@@H](CCC(=O)O)C(=O)N[C@@H](CO)C(=O)N[C@@H](CC(=O)O)C(=O)N[C@H](C(=O)O)C(C)C)C(=O)O` [Compound 85] (I: ESDV-OH / II: ESDV-OH; linker I:N-II:N via CO(CH2CH2O)9CH2CH2CO; C-terminus assumed), the Ki at PDZ1-2 tandem of PSD-95 was found to be 1 ± 0.05 µM.

`CC[C@H](C)[C@H](NC(=O)CCOCCOCCOCCOCCOCCOCCOCCOCCOCCOCCOCCOCCOCCC(=O)N[C@H](C(=O)N[C@@H](C)C(=O)N[C@H](C(=O)N[C@@H](C)C(=O)N[C@H](C(=O)O)C(C)C)[C@@H](C)O)[C@@H](C)CC)C(=O)N[C@@H](C)C(=O)N[C@H](C(=O)N[C@@H](C)C(=O)N[C@H](C(=O)O)C(C)C)[C@@H](C)O` [(IATAV)2PEG12 (87), (IATAV)2PEG12] had a half-life at […] in series [1] (setting [2]) of 3.05 h. Besides, the Ki is 1 ± 0.06 µM on PDZ1-2 tandem of PSD-95 and 13 ± 1.1 µM at PDZ2 of PSD-95.

In the case of `CC[C@H](C)[C@H](NC(=O)CCOCCOCCOCCOCCOCCOCCOCCC(=O)N[C@H](C(=O)N[C@@H](CCC(=O)O)C(=O)N[C@@H](CO)C(=O)N[C@@H](CC(=O)O)C(=O)N[C@H](C(=O)O)C(C)C)[C@@H](C)CC)C(=O)N[C@@H](CCC(=O)O)C(=O)N[C@@H](CO)C(=O)N[C@@H](CC(=O)O)C(=O)N[C@H](C(=O)O)C(C)C` [(IESDV)2PEG6 (77), (IESDV)2PEG6], the “degradation” value in series [1] is listed as “no significant degradation could be detected over a time period of 6 days”. Further, the half-life at […] in series [1] (setting [2]) was more than 133 h. In addition, the Ki on PDZ1-2 tandem of PSD-95 was approximately 0.1 µM.

In the case of “YGRKKRRQRRRKLSSIESDV [Tat-NR2B (3), reference compound]”, the Ki on PDZ1-2 tandem of PSD-95 was 9.8 ± 0.35 µM.
